# Data published in patent publication US20210293825A1, “METHODS FOR PRECISION THERAPEUTIC TARGETING OF HUMAN CANCER CELL MOTILITY AND KITS THEREOF” (UNITED STATES GOVERNMENT AS REPRESENTED BY THE DEPARTMENT …, priority 2018, published 2021).
# Tests used:
# [1] = system: estrogen-responsive genes in MCF-7 cells; assay: Induction of estrogen-responsive genes (qRT/PCR); type: cell-based, human
# Description: FIG. 1a is a schematic flow of probe synthesis and development strategy. […] Values are mean±SEM of a single experiment in replicates of N=4, with similar findings in multiple separate experiments (also N=4). […] Values are mean±SEM of a single experiment in replicates of N=24, with similar findings in a separate experiment (also N=24). *Denotes Student's t test P value <0.05, compared to controls. […] Values are mean±SEM from N>2 separate experiments, each in replicates of N=3. […] Values are the mean±SD number of total, CFU-GM, CFU-GEMM or BFU-E colonies at 14 days after treatment with KBU2046, from a single experiment in replicates of N=2. […] Values are the mean±SD of a single experiment, with similar results seen in a separate experiment, both in replicates of N=2.
# Quantitative Reverse Transcriptase Polymerase Chain Reaction. RNA was isolated and qRT/PCR was performed as described (Ding, Y. et al., J Biomol Tech 18, 321-30 (2007)), analyzed by the 2^−ΔΔCt method (Livak, K. J. et al., Methods 25, 402-8 (2001)), using primer/probes sets (ABI), HSP90α (Hs00743767_sH), HSP90β (Hs00427665_g1), trefoil factor 1 (TFF1; Hs00907239 ml), cathepsin D (CTSD; Hs00157205_m1), progesterone receptor (PGR; Hs01556702 ml) and GAPDH (Hs99999905_m1). Assays were repeated, each in replicates of N=2.
# [2] = system: PC3 or PC3M cells; assay: Scratch wound healing assay with siRNA knockdown; type: cell-based, human
# Method: HEK293T cells were transfected with 1 of 420 different protein kinases, treated with 10 μM KBU2046 (N=5 replicates) or vehicle control (N=5) for three days, and LUMIER assays performed. The N=17 kinases that gave significant findings (Student's t-test <0.05) in the same direction in each of two separate experiments are depicted. Each separate treatment and kinase condition in each of two separate experiments was conducted in replicates of N=5. […] FIGS. 6c and 6d show the results of the wound healing assay. PC3 cells were transfected with siRNA targeting RAF1 (si-Raf1) or non-targeting siRNA (si-control), treated with KBU2046 or vehicle as above, and RAF1 protein measured by Western blot (c) and effects upon wound healing measured (d). […] Purified recombinant HSP90β, CDC37, and RAF1 were combined with KBU2046, as indicated, incubated in an in vitro kinase assay for the indicated times, and Western blot for RAF1-Ser^338 phosphorylation performed. FIGS. 6f and 6g show the effect on HSP90β/CDC37 heterocomplex formation and function in vitro. Purified recombinant HSP90β, CDC37, RAF1, SGK3 or MAP3K6 were combined and treated with KBU2046 or vehicle control, as indicated, incubated in an in vitro kinase assay for the indicated times, and Western blot performed, as denoted. Experiments were repeated at separate times at least once, with similar results.
# FIGS. 24b-d show the results of the wound healing assay. PC3 or PC3M cells were treated+/−KBU2046 and with siRNA to the denoted gene, or with non-targeting control siRNA (NT), and effects upon transcript (b) or protein expression (c) measured by qRT/PCR or Western blot, respectively. For qRT/PCR, values are expressed as the target gene/GAPDH ratio, normalized to that of NT/−KBU2046 cells. Under the same conditions, wound healing assays were performed (d).
# Scratch Wound Assays. Cells were transfected with the indicated si-RNA constructs per manufacture protocol (GE-Dharmacon), cultured 48 hrs with 10 μM KBU2046 or vehicle, and scratch wound assay performed as described (Xiao, X. et al., Oncotarget 6, 3225-39 (2015)). […]
# [3] = molecular target: T1, CDC37 (Homo sapiens, UniProt Q16543); assay: Biophysical binding assays and DARTS, isolated CDC37; settings: ITC, thermal shift, biolayer interferometry, dynamic light scattering, DARTS
# T1 construct: made in house; host or cells: BL-21 DE-3 E. coli, pET15b
# Method: (§1) Studies used purified recombinant HSP90β or CDC37. […] For DARTS assay, HSP90β or CDC37 were individually pre-incubated with KBU2046, thermolysin added, and reaction products were separated by SDS PAGE and visualized by silver stain (depicted above). NTco—no thermolysin control. However, when the DARTS assay was conducted with both HSP90β and CDC37 present, KBU2046 protected both proteins from degradation in a concentration-dependent manner (see, FIG. 5a).
# (§2) DARTS provides a sensitive measure of ligand-induced changes in protein structure and dynamics by measuring the ability of a ligand to protect its target from protease digestion (Lomenick, B. et al., Proc Natl Acad Sci USA 106, 21984-9 (2009)). […] The intensity of the CDC37 band increased, that of the HSP90β degradation product decreased, and both effects were statistically significant, concentration-dependent and were evident at 10 nM. […] Further, these findings also indicate that KBU2046 is not acting as a classical HSP90 inhibitor.
# (§3) Biophysical and Biochemical Binding Assays. […]
# [4] = system: NCI 60 cell line panel; assay: NCI 60 cell line panel screening; type: cell-based; settings: initial screening per DTP protocol
# Description: KBU2046 was submitted to the Developmental Therapeutics Program (DTP) of the US National Cancer Institute (NCI), underwent initial screening across the NCI 60 cell line panel per DTP protocol (Shoemaker, R. H., Nat Rev Cancer 6, 813-23 (2006)) and the resultant COMPARE diagram is depicted herein.
# [5] = molecular target: T2, HSP90β (Homo sapiens, UniProt P08238); assay: Biophysical binding assays and DARTS, isolated HSP90β; settings: ITC, thermal shift, biolayer interferometry, dynamic light scattering, DARTS
# T2 construct: made in house; host or cells: Rosetta BL-21 E. coli
# Method: as §1, §2, §3
# T1 sequence (Q16543 whole entry): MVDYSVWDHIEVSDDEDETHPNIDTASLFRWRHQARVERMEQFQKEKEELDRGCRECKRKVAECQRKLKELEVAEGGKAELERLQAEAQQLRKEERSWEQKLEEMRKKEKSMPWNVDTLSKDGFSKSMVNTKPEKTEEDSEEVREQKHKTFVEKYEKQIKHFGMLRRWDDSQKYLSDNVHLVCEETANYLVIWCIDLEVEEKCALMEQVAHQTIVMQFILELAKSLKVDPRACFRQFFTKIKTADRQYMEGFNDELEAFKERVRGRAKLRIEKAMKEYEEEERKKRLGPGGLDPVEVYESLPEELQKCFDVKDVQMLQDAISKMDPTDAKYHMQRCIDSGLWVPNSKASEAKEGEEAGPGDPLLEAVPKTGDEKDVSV
# T2 sequence (P08238 whole entry): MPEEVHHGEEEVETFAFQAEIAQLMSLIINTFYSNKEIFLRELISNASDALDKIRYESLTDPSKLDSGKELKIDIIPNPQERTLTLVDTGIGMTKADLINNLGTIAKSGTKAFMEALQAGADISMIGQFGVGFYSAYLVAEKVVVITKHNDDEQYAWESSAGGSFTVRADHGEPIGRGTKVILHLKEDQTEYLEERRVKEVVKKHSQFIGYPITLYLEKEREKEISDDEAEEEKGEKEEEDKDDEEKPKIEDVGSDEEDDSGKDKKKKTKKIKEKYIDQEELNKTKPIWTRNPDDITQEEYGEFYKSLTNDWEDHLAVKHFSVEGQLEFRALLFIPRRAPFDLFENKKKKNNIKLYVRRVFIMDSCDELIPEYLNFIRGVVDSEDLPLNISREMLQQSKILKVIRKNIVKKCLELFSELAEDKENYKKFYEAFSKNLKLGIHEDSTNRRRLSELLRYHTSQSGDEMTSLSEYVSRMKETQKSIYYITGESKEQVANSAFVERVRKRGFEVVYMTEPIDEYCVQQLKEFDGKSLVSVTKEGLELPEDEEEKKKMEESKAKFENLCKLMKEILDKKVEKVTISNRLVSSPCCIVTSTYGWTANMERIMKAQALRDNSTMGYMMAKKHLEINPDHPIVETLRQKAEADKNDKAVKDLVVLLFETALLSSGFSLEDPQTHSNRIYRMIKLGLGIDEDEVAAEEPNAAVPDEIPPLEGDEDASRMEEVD
smiles,measurement,setting,value
"O=C1c2ccccc2OCC1c1ccc(F)cc1 (racemic) [KBU2046, (±)-3(4-fluorophenyl)chroman-4-one]",activation of estrogen-responsive genes,[1],did not activate estrogen-responsive genes
same,efficacy on motility,[2]; SGK3 knockdown,still retained efficacy
same,RAF1 protein expression levels,"[2]; Western blot, cells",did not alter RAF1 protein expression levels
same,efficacy on motility,[2]; knockdown of RAF1 or of RIPK1,mitigated KBU2046 efficacy
same,binding to CDC37,[3],no evidence of KBU2046 binding
same,cell toxicity,[4],minimal-to-no cell toxicity
same,binding to HSP90β,[5],no evidence of KBU2046 binding
